Active and inactive are the calls of the source. How the calls were made is not given here. A value given as a limit tells only on which side of the number the result lay.

The test relates to cytotoxicity counter-screen, luminescence read-out. The test is described as follows: cytotoxicity of HIV fusion inhibitor analogs, SAR follow-up, cytotoxicity control for HIV fusion inhibitor project, cell-based, luminescence (AID 435031).
What is called CC50 is the concentration that lowers cell viability or growth by half. In the case of `O=C1NC(=S)N(c2ccc(F)cc2)C(=O)/C1=C/c1ccco1`, the CC50 was > 100 µM (inactive).

For `COC(=O)c1sc(-c2ccc(C(C)(C)C)cc2)cc1NC(=O)c1ccccc1C(=O)O`, the CC50 is 17 µM.

Turning to `CC(C)S(=O)(=O)C1=NSC2=NC(=O)/C(=C\c3ccc(-c4cccc(C(=O)O)c4)o3)C(=N)N21`, the CC50 was > 100 µM (inactive).

In the case of `CC(C)S(=O)(=O)C1=NSC2=NC(=O)/C(=C\c3ccc(-c4ccccc4)o3)C(=N)N21`, the CC50 is > 100 µM (inactive).

Take `CCOC(=O)c1sc(N2C(=O)C(O)=C(C(=O)c3ccc(C)o3)C2c2cccc([N+](=O)[O-])c2)nc1C` (stereo unspecified): the CC50 was > 100 µM (inactive).

In the case of `O=C(N/N=C/c1c(O)n(C2CCCCC2)c(=S)[nH]c1=O)c1ccccc1O`, the CC50 is > 100 µM (inactive).

Consider `O=c1c(=Cc2cc([N+](=O)[O-])cc([N+](=O)[O-])c2O)sc2nc3ccccc3n12`, for which the CC50 is > 100 µM (inactive).

For `CSc1nnc(-c2ccccc2N=Cc2c(C)[nH]n(-c3ccc4ccccc4c3)c2=O)c(=O)[nH]1`, the CC50 is > 100 µM (inactive).

On to `CCC(Sc1nc2ccsc2c(=O)n1Cc1ccc(C(=O)O)cc1)C(=O)Nc1ccc(C)c(Cl)c1` (stereo unspecified), for which the CC50 was > 100 µM (inactive).

Turning to `O=C(O)c1ccccc1N=Nc1c(O)[nH]c2ccc([N+](=O)[O-])cc12`, the CC50 is > 100 µM (inactive).

Take `CS(=O)(=O)C1=NSC2=NC(=O)/C(=C\c3ccc(OS(=O)(=O)c4ccccc4)cc3)C(=N)N21`: the CC50 is > 100 µM (inactive).

On to `O=C1NC(=S)N(c2ccc(F)cc2)C(=O)/C1=C\c1ccoc1`, for which the CC50 is > 100 µM (inactive).

For `O=[N+]([O-])c1cc([N+](=O)[O-])c2oc(-c3ccccc3)c(Br)c2c1O`, the CC50 was > 100 µM (inactive).

For `CCC(C)(C)C1CCc2c(sc(NC(=O)c3ccccc3C(=O)O)c2C#N)C1` (stereo unspecified), the CC50 was 22 µM.

For the molecule `COc1ccc(OC)c(N2C(=O)/C(=C/c3ccco3)C(=O)NC2=S)c1`, the CC50 is > 100 µM (inactive).

As for `CC1(C)CC(=O)C2=C(C1)c1c(ccc3ccccc13)NC2c1cc([N+](=O)[O-])cc([N+](=O)[O-])c1O` (stereo unspecified), the CC50 is > 100 µM (inactive).

Take `O=C(O)c1ccccc1C(=O)N(Cc1cccc(Oc2ccc(Cl)cc2)c1)[C@H]1CCCc2ccccc21`: the CC50 is 19 µM.

For `CS(=O)(=O)C1=NSC2=NC(=O)/C(=C\c3cccn3-c3ccc(Cl)cc3)C(=N)N21`, the CC50 is > 100 µM (inactive).

For the molecule `COc1cc(/C=N/NS(=O)(=O)c2ccc3ccccc3c2)ccc1OCc1ccc(C(=O)O)cc1`, the CC50 was > 100 µM (inactive).

For `O=C(O)CCCN1C(=O)/C(=C/c2ccc(-c3nc4ccccc4s3)o2)SC1=S`, the CC50 is > 100 µM (inactive).

`CC(C)(C)c1cc(-c2csc(Nc3ccccc3)[n+]2Cc2ccc(C(=O)O)cc2)cc(C(C)(C)C)c1O`: the CC50 is 13.7 µM.

In the case of `CCOC(=O)C1=C(C)N=c2sc(=Cc3ccc(OCC(=O)O)cc3)c(=O)n2C1c1ccc(OC(C)C)cc1` (stereo unspecified), the CC50 is 32 µM.

As to `COc1cc(C=NNc2ccc(Cl)c(C(=O)O)c2)ccc1OC(=O)c1ccc(F)cc1`, the CC50 is > 100 µM (inactive).

As for `COc1ccccc1NS(=O)(=O)c1cccc(-n2c(O)c(C=Nc3ccccc3C(=O)O)c3ccccc3c2=O)c1`, the CC50 is > 100 µM (inactive).

Consider `N#C/C(=C\c1ccc(OCc2ccc(Cl)cc2)cc1)C(=O)Nc1cccc(C(=O)O)c1`, for which the CC50 was > 100 µM (inactive).

Turning to `COc1cc(/C=C2\SC(=O)N(c3ccccc3Cl)C2=O)cc([N+](=O)[O-])c1O`, the CC50 was > 100 µM (inactive).

`COc1ccc(C(=O)Oc2ccc(C=NNc3ccc(Cl)c(C(=O)O)c3)cc2OC)cc1`: the CC50 was > 100 µM (inactive).

As for `Cc1ccc(S(=O)(=O)Oc2ccc(/C=C3/C(=N)N4C(=NC3=O)SN=C4S(C)(=O)=O)cc2)cc1`, the CC50 was 91 µM.

Consider `COc1cc(C=NNc2ccc(Cl)c(C(=O)O)c2)ccc1OC(=O)c1ccccc1F`, for which the CC50 is > 100 µM (inactive).

Turning to `Cc1c(Cl)cccc1NS(=O)(=O)c1ccc2c(c1)C1C=CCC1C(c1ccc(C(=O)O)cc1)N2` (stereo unspecified), the CC50 was > 100 µM (inactive).

On to `Oc1c(Cl)cc(Cl)c(Cl)c1Cc1c(O)c(Cl)cc(Cl)c1Cl`, for which the CC50 was 18 µM.

Source of the values: PubChem BioAssay AID435031 (Sanford-Burnham Center for Chemical Genomics, 2010).
